# According to PubChem BioAssay AID364 (The Scripps Research Institute Molecular Screening Center, 2006):
# Calls of active or inactive are those of the source.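 The calls were made as follows: active = concentration giving half-maximal inhibition at or below 20 micromolar; inactive = half-maximal concentration above 20 micromolar, or not dose tested.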
# System: Jurkat E6.1 viability, ATP luminescence, 48 h
# Assay: cytotoxicity toward Jurkat T cells, primary screen, cell-based, Jurkat E6.1, NIH starter set (AID 364)
row,Structure (SMILES),CC50
1,COc1cc([C@@H]2c3cc4c(cc3[C@H](O)[C@H]3COC(=O)[C@H]23)OCO4)cc(OC)c1OC,34.9 nM
2,COc1cccc2c1C(=O)c1c(O)c3c(c(O)c1C2=O)C[C@@](O)(C(C)=O)C[C@@H]3O[C@H]1C[C@H](N)[C@H](O)[C@H](C)O1,151 nM
3,N=c1c2c(-c3ccccc3)c(-c3ccccc3)n(Cc3ccccc3)c2ncn1CCCn1ccnc1,19900 nM
4,CCCOc1ccc2nc(NC(=O)OC)[nH]c2c1,178 nM
5,COc1cccc(C2=CC(c3ccccc3)n3nnnc3N2)c1 (configuration not stated),1770 nM
6,c1cc2c(cc1C1=Nn3c(nnc3C3CCCCC3)SC1)OCO2,6930 nM
7,CCC(NC(=O)Nc1nnc(C(F)(F)F)s1)(C(F)(F)F)C(F)(F)F,2220 nM
8,CC(=O)/C(C#N)=C1\NC(=O)C(Cc2ccccc2Cl)S1 (configuration not stated),> 20000 nM (inactive)
9,Cn1c(Cl)cnc1C1CC(=O)c2cc(Cl)ccc2O1 (configuration not stated),7300 nM
10,CC(=O)/C(C#N)=C1\NC(=O)C(Cc2ccccc2)S1 (configuration not stated),> 20000 nM (inactive)
11,COc1cccc(NC(=O)CSC2=C(C#N)C(c3ccco3)C3=C(CCCC3=O)N2)c1 (configuration not stated),4730 nM
12,Cc1ccc(NC(=O)CSc2nnc(-c3ccco3)c(-c3ccco3)n2)cc1,1710 nM
13,CCN(CC)c1ccc(-c2nn3c(-c4cccnc4)nnc3s2)cc1,3270 nM
14,COc1ccc(C2=Nn3c(nnc3-c3ccccc3)SC2)cc1OC,5630 nM
15,CCCSc1ccc2nc(NC(=O)OC)[nH]c2c1,390 nM
16,C[C@H]1CCC/C=C/C2C[C@H](O)CC2[C@H](O)/C=C/C(=O)O1 (some centres not stated),368 nM
17,CC1(c2ccccc2)NCCN2C(=O)CSC21 (configuration not stated),> 20000 nM (inactive)
18,N#CC1=C(SCC(=O)c2ccc(Cl)cc2)NC2=C(C(=O)CCC2)C1c1ccco1 (configuration not stated),2790 nM
19,CC[C@]1(O)CC2CN(CCc3c([nH]c4ccccc34)[C@@](C(=O)OC)(c3cc4c(cc3OC)N(C=O)[C@H]3[C@@](O)(C(=O)OC)[C@H](OC(C)=O)[C@]5(CC)C=CCN6CC[C@]43[C@@H]65)C2)C1 (some centres not stated),< 3 nM
20,O=c1[nH]c(=O)n([C@H]2C[C@H](O)[C@@H](CO)O2)cc1F,2730 nM
21,CCOC(=O)CSC1=C(C#N)C(c2ccc3c(c2)OCO3)CC(=O)N1 (configuration not stated),6580 nM

row,Structure (SMILES),CC50
1,CC(NC(=O)Nc1nnc(C(F)(F)F)s1)(C(F)(F)F)C(F)(F)F,2590 nM
2,Cc1ccc(C(=O)CSC2=C(C#N)C(c3ccco3)C3=C(CCCC3=O)N2)cc1 (configuration not stated),2400 nM
3,CCOc1ccc(C2=Nn3c(nnc3-c3ccccc3OC)SC2)cc1,26.7 nM
4,COc1cccc2c1C(=O)c1c(O)c3c(c(O)c1C2=O)C[C@@](O)(C(=O)CO)C[C@@H]3O[C@H]1C[C@H](N)[C@H](O)[C@H](C)O1,261 nM
5,CC(=O)O[C@@]12CO[C@@H]1C[C@H](O)[C@@]1(C)C(=O)[C@H](O)C3=C(C)[C@@H](OC(=O)[C@H](O)[C@@H](NC(=O)OC(C)(C)C)c4ccccc4)C[C@](O)([C@@H](OC(=O)c4ccccc4)[C@H]21)C3(C)C,55.6 nM
6,COc1ccc2c(c1OC)C(=O)O[C@@H]2[C@H]1c2c(cc3c(c2OC)OCO3)CCN1C,> 20000 nM (inactive)
7,COc1cccc2c(=O)c(SC(F)(F)C(F)C(F)(F)F)c(C)[nH]c12 (configuration not stated),5130 nM
8,CCCCCOc1ccc(C(=O)NCC(=O)NCC(=O)OCC)cc1,> 20000 nM (inactive)
9,CCc1cn([C@H]2C[C@H](O)[C@@H](CO)O2)c(=O)[nH]c1=O,> 20000 nM (inactive)
10,CCc1nc(N)nc(N)c1-c1ccc(Cl)cc1,2600 nM
11,COc1ccc2c(c1OC)C(=O)N1c3ccccc3C(=O)N(c3ccccc3F)C21 (configuration not stated),> 20000 nM (inactive)
12,Cc1cccc(-c2nnc3n2N=C(c2ccc(Br)cc2)CS3)c1,> 20000 nM (inactive)
13,COc1ccccc1-c1nnc2n1N=C(c1ccc(O)c(O)c1)CS2,58.2 nM
14,CC[C@]1(O)C[C@@H]2CN(CCc3c([nH]c4ccccc34)[C@@](C(=O)OC)(c3cc4c(cc3OC)N(C)[C@H]3[C@@](O)(C(=O)OC)[C@H](OC(C)=O)[C@]5(CC)C=CCN6CC[C@]43[C@@H]65)C2)C1,13.6 nM
15,COc1ccc(Nc2cc(C)nc(-n3nc(C)cc3C)n2)cc1,188 nM
16,COc1ccc(CCn2c(=N)c(C#N)cc3c(=O)n4ccccc4nc32)cc1,> 20000 nM (inactive)
17,COC(=O)/C(=C1/Oc2cc(C)oc(=O)c2S1)C(F)(F)F,2850 nM
18,Clc1ccc(-n2ncc3c(NCc4ccco4)ncnc32)cc1,3880 nM
19,N#CC1=C(N)NC(SCc2ccc(F)cc2)=C(C#N)C12CCCCC2,8190 nM
20,CC(C)NCc1c(O)c(Br)cc2oc3c(c12)CCCC3,> 20000 nM (inactive)
21,N#CC1=C2SCC(O)(c3ccccc3)N2C(=O)CC1c1ccccc1 (configuration not stated),806 nM

row,Structure (SMILES),CC50
1,CC[C@H]1CN2CCc3cc(OC)c(OC)cc3[C@@H]2C[C@@H]1C[C@H]1NCCc2cc(OC)c(OC)cc21,58.2 nM
2,COC(=O)Nc1nc2ccc(C(=O)c3ccccc3)cc2[nH]1,229 nM
3,CC(=O)O[C@H]1C(=O)[C@]2(C)[C@H]([C@H](OC(=O)c3ccccc3)[C@]3(O)C[C@H](OC(=O)[C@H](O)[C@@H](NC(=O)c4ccccc4)c4ccccc4)C(C)=C1C3(C)C)[C@]1(OC(C)=O)CO[C@@H]1C[C@@H]2O,43.4 nM
4,Fc1ccc2[nH]c3c(N4CCN(Cc5ccc6c(c5)OCO6)CC4)ncnc3c2c1,2710 nM
5,COC(=O)CSc1nnc2n(-c3ccc(OC)cc3)c(=O)c3c4c(sc3n12)CCCCC4,> 20000 nM (inactive)
6,c1ccc2c(c1)CCN(c1ncnc3c1[nH]c1ccccc13)C2,1560 nM
7,c1coc(CNc2ncnc3ccccc23)c1,2400 nM
8,N#CC1=C(SCC(=O)c2ccc(Br)cc2)NC2=C(C(=O)CCC2)C1c1ccco1 (configuration not stated),3050 nM
9,CC(=O)OC[C@H]1O[C@@H](n2ncc(=O)[nH]c2=O)[C@H](OC(C)=O)[C@@H]1OC(C)=O,> 20000 nM (inactive)
10,N#CC1=C(SCC(=O)c2ccccc2)NC2=C(C(=O)CCC2)C1c1ccco1 (configuration not stated),1280 nM
11,COc1ccc(C2=Nn3c(nnc3-c3ccccn3)SC2)cc1,4780 nM
12,COc1cc(C2C(C#N)=C(N)Oc3cc(N)ccc32)cc(OC)c1OC (configuration not stated),326 nM
13,COC(=O)Nc1nc2ccc(Sc3ccccc3)cc2[nH]1,574 nM
14,COc1cccc(Cn2c(NCc3ccco3)nc3c2c(=O)n(C)c(=O)n3C)c1,2550 nM
15,Cc1ccc2nc(NCc3ccccc3)[nH]c2c1,3240 nM
16,Nc1nc(Cl)nc2c1ncn2[C@H]1C[C@H](O)[C@@H](CO)O1,1810 nM
17,COc1ccc(OC)c(NS(=O)(=O)c2ccc(N3CCCC3=O)cc2)c1,193 nM
18,COc1cccc(N2CCN(c3ncnc4c3[nH]c3ccc(F)cc34)CC2C)c1 (configuration not stated),2270 nM
19,COc1ccc(C(=O)C(CN2CCCC2)c2ccccc2)cc1 (configuration not stated),7210 nM
20,CO[C@H]1C[C@@H]2CC[C@@H](C)[C@@](O)(O2)C(=O)C(=O)N2CCCC[C@H]2C(=O)O[C@H]([C@H](C)C[C@@H]2CC[C@@H](O)[C@H](OC)C2)CC(=O)[C@H](C)C=C(C)[C@@H](O)[C@@H](OC)C(=O)[C@H](C)C[C@H](C)C=CC=CC=C1C,> 20000 nM (inactive)
